The results in this text go back to patent US9370587B2, “Coloring substance for diagnostic ophtalmologic use” (IROS R.C. S.r.l., priority 2012, dated 2016).

Data set [1] can be described thus: Tolerability of topical use on the eye. Type of data set: in vivo, human. The following applies: topical ocular use.
The test system of a further data set is epithelial cells. Nature of the data set: Staining behaviour on tear film and corneal epithelial cells.

Entries after “also recorded” stand apart in the source; their conditions may differ.

For `Cc1cc2nc3c(=O)[nH]c(=O)nc-3n(C[C@H](O)[C@H](O)[C@H](O)CO)c2cc1C` [riboflavin], the “harmfulness / side effects on the eye” value in data set [1] is “not harmful to the human eye; also recorded: side no effects; also recorded: absence of toxic effects on the corneal epithelium”. Besides, in the data set on epithelial cells, the penetration into cells result is “does not penetrate into the cells”.
